According to patent US20260183297A1, “SELECTION OF PATIENTS FOR THE TREATMENT OF FADS1-MEDIATED DISEASES OR DISORDERS USING FADS-1 INHIBITORS” (AMGEN INC., priority 2022, published 2026):
Entries after “also recorded” stand apart in the source; their conditions may differ. Marks after values point to notes of the source that are not given here.

Key:
human FADS1 = target: T1, human FADS1 (Homo sapiens, UniProt O60427); test: In vitro FADS1 activity assay (HEK 293 cells with FADS1 BacMam, 13C5-DGLA substrate); type: cell-based; conditions: in vitro; read-out: half-maximal inhibitory concentration (IC50) against human FADS1
T1 construct: expressed in transfected cells; host or cells: HEK 293 cells transduced with FADS1 BacMam (MOI 25)
T1 sequence (O60427 whole entry): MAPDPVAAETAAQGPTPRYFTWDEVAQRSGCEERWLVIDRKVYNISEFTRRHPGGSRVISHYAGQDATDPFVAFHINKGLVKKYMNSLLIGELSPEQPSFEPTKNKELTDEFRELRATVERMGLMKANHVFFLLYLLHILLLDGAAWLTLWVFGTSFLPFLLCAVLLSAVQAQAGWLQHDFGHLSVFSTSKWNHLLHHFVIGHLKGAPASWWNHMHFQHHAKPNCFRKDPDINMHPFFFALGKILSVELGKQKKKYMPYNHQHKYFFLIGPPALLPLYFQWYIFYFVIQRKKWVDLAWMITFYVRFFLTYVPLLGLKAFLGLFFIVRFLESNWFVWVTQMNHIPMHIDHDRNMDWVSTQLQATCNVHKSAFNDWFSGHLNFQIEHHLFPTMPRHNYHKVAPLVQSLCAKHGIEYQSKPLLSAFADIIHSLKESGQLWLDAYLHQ
Protocol: HEK 293 cells in Dulbecco's Modified Eagle's medium (DMEM), 10% fetal bovine serum (FBS), 1× penicillin-streptomycin-glutamine (PSG) were mixed with FADS1 BacMam or FADS2 BacMam reagents at multiplicity of infection (MOI) ratio of 25 and plated in a in 96-well poly-D-lysine-coated plate. Plates were incubated in a 37° C., 5% CO2 for 24 hours. Cells were washed with DPBS and cells were incubated with 90 ml of compound dilution in DPBS at 5% CO2, 37° C. for 20 minutes. Ten L of the substrate, ^13C5-DGLA (FADS1), or 13C-LA (FADS2) diluted in DPBS were added to the cells and incubated at 5% CO2, 37° C. for 30 minutes (FADS1) or 45 minutes (FADS2). Cells were then washed with DPBS and 50 μL of 2N NaOH were added to each well and incubated in a 65° C. oven for 1 hour for the saponification reaction. […] Samples were then subjected to LC-MS/MS detection for the following analytes for the FADS1 reaction: ^13C5-DGLA and ^13C5-AA or the following analytes for the FADS2 reaction: ^13C18-LA, ^13C18-GLA, ^13C18-DGLA and ^13C18-AA. Samples were injected onto a Poroshell 120 EC-C18 3.0×50 mm, 1.9 um id column (Agilent, Santa Clara, CA).
The analyte peak areas were quantified by using the Analyst software (SCIEX, Framingham, MA). The percent of substrate to product conversion relative to untreated control were calculated (percent of control [POC]). […]

[1] = Plasma lipid, glucose, insulin and metabolic profile measurements in DIO mice; type: in vivo, mouse; conditions: for Alanine Aminotransferase / Cholesterol / HDL-Cholesterol / Insulin / LDL-Cholesterol / Non-esterified fatty acids / Triglycerides: DIO mice plasma; for Alanine Aminotransferase / Cholesterol / HDL-Cholesterol / Insulin / LDL-Cholesterol / Non-esterified fatty acids / Triglycerides / C-reactive Protein / Glucose / Serum Amyloid A: mean ± SD
Protocol: Body weight was measured daily and used for dosing calculations. A 4-hour fasted retro-orbital blood sample was collected at baseline and day 46 and used for insulin, cholesterol, and triglyceride analysis. A 3-day average food consumption was measured on days 39-41. All animals received 0.1 ml of 2 mM ^13C5-DGLA by IP injection 23.5 hours after the last PO gavage with the different treatment to allow for 30 minutes of exposure prior to necropsy to determine the residual in vivo FADS1 activity.
Mice were bled consciously from the retro-orbital sinus, and blood was collected into EDTA plasma tubes. Plasma lipids were measured using the Olympus AU400e Chemistry Analyzer (Olympus America, Center Valley, PA). Plasma insulin was measured using the ALPCO mouse high range insulin ELISA (Alpco, Salem, NH). Blood glucose was measured using an AlphaTRAK blood glucometer (Zoetis, Parsippany, NJ).

[2] = Indirect calorimetry studies (CLAMS); type: in vivo, mouse; conditions: DIO mice, 30 mg/kg
Protocol: Twenty-four Fads1 KO and 24 WT mice entered the Comprehensive Laboratory Animal Monitoring System (CLAMS; Columbus Instruments, Columbus, Ohio—Oxymax Model 2018, 0233-004M, Oxymax for Windows v5.53 software, Hardware configuration 190395) before starting the HFD feeding phase, and again at 6 and 12 weeks on HFD. […] Body weight was measured daily, and food consumption was measured biweekly. Animals reentered the CLAMS on days 17-21 and on days 38-42. The volume of oxygen consumption (VO2), carbon dioxide production (VCO2), RER, and energy expenditure (HEAT) were measured during that period.

[3] = Tissue endocannabinoid measurement (2-AG, AEA); type: in vivo, mouse; conditions: liver and ING WAT, DIO mice, 30 mg/kg
Protocol: Approximately 200 mg of tissue per sample were used for endocannbabinoid extraction. To each frozen tissue sample, 10 μl of ice-cold 100 mM butylated hydroxytoluene (BHT; in methanol) and 0.5 ml of 100 nM AEA-d8 (in water) were added. Tissue sample solution with BHT were immediately homogenized using TissueLyser (QIAGEN, Germantown. MD) for 3 minutes at 30 Hz, followed by two consecutive 1.25 ml of ice-cold ethyl acetate:hexane (9:1) extraction. The pooled extracts were dried to complete dryness under nitrogen gas. Dried samples were redissolved in 80% acetonitrile and subjected to LC/MS analysis. 10 μl of sample was injected onto a Kinetex C18 2.1×100 mm, 2.6 μm column (Phenomenex, Torrance, CA). Mobile phase A is 0.2% acetic acid in water and mobile phase B is 0.1% formic acid in acetonitrile. The LC gradient was a 7-minute long method at a flow rate of 0.2 ml/minute consisting of an isocratic period from 0 to 1 minute at 75% B, followed by a gradient from 75 to 100% from 1 to 4 minutes, and 100 to 75% B from 4 to 7 minutes. The analyte peak areas were quantified using the Analyst software (SCIEX, Framingham MA).

[4] = Liver histology assessment (H&E, Oil-red-O); type: in vivo, mouse; conditions: WT DIO mice, 10 mg/kg, 24 days, compared to WT vehicle
[5] = Fatty acid concentration and composition of plasma lipid subfractions (GC) of Compound A-treated DIO mice; type: in vivo; conditions: DIO mouse plasma, 30 mg/kg, mean
[6] = DIO mice, 10 mg kg^−1, 46 or 54 days
[7] = DIO mice, 30 mg kg^−1, 46 or 54 days
[8] = DIO mice, 10 and 30 mg/kg daily oral

COc1ccn2c(=O)c(-c3cnn(CC(F)(F)C(F)(F)F)c3)c(C(F)(F)F)nc2c1 [Compound A, 8-methoxy-3-(1-(2,2,3,3,3-pentafluoropropyl)-1H-pyrazol-4-yl)-2-(trifluoromethyl)-4H-pyrido[1,2-a]pyrimidin-4-one]
IC50 (human FADS1): 3 nM | plasma liver enzyme alanine aminotransferase (ALT) ([1]; Compound A-treated DIO mice): decreased | Alanine Aminotransferase ([1]; 10 mg kg^−1, 46 or 54 days): 142.8 ± 26.6 U L^−1 | Cholesterol ([1]; 10 mg kg^−1, 46 or 54 days): 173.0 ± 11.9 mg/dL | HDL-Cholesterol ([1]; 10 mg kg^−1, 46 or 54 days): 86.4 ± 8.0 mg/dL | Insulin ([1]; 10 mg kg^−1, 46 or 54 days): 3.7 ± 3.2 ng/mL | LDL-Cholesterol ([1]; 10 mg kg^−1, 46 or 54 days): 22.4 ± 2.3 mg/dL | Non-esterified fatty acids ([1]; 10 mg kg^−1, 46 or 54 days): 0.9 ± 0.1 mEq L^−1 | Triglycerides ([1]; 10 mg kg^−1, 46 or 54 days): 77.8 ± 13.7 mg/dL | Alanine Aminotransferase ([1]; 30 mg kg^−1, 46 or 54 days): 102.0 ± 32.4 U L^−1 | Cholesterol ([1]; 30 mg kg^−1, 46 or 54 days): 165.3 ± 15.6 mg/dL | HDL-Cholesterol ([1]; 30 mg kg^−1, 46 or 54 days): 85.7 ± 5.5 mg/dL | Insulin ([1]; 30 mg kg^−1, 46 or 54 days): 2.2 ± 1.3 ng/mL | LDL-Cholesterol ([1]; 30 mg kg^−1, 46 or 54 days): 19.7 ± 2.5 mg/dL | Non-esterified fatty acids ([1]; 30 mg kg^−1, 46 or 54 days): 0.7 ± 0.1 mEq L^−1 | Triglycerides ([1]; 30 mg kg^−1, 46 or 54 days): 63.3 ± 9.7 mg/dL | C-reactive Protein [1, 6]: 43.6 ± 9.7 µg/mL | Glucose [1, 6]: 170.3 ± 22.3 mg/dL | Serum Amyloid A [1, 6]: 5.2 ± 1.3 µg/mL | plasma insulin decrease vs vehicle ([1]; DIO mice, 10 mg/kg daily oral): 74.9% | C-reactive Protein [1, 7]: 37.1 ± 6.5 µg/mL | Glucose [1, 7]: 168.6 ± 23.2 mg/dL | Serum Amyloid A [1, 7]: 4.8 ± 1.8 µg/mL | lower plasma triglycerides vs vehicle ([1]; DIO mice, 30 mg/kg daily oral): 41.6% | plasma insulin decrease vs vehicle ([1]; DIO mice, 30 mg/kg daily oral): 84.7% | plasma cholesterol [1, 8]: lowered; also recorded: trended lower | plasma triglycerides [1, 8]: dose-dependent decreases | body weight ([2]; 42 days, vs vehicle): significantly reduced body weight | carbon dioxide production ([2]; 42 days, vs vehicle): no differences | energy expenditure ([2]; 42 days, vs vehicle): no differences | oxygen consumption ([2]; 42 days, vs vehicle): no differences | light cycle RER ([2]; at 17-23 days and 38-42 days): decreased | activity in the dark cycle ([2]; vs vehicle-treated mice): trended to be more active | endocannabinoid (2-AG, AEA) levels [3]: Decreased levels of endocannabinoids | liver lipid content (Oil-red-O staining) [4]: reduced lipid content | C20:4n6 concentration, Cholesterol ester ([5]; Cholesterol ester): 72.4*** μg mL^−1 | C16:1n7t concentration, Phospholipids ([5]; Phospholipids): 1.2 µg/mL | C16:1n7t concentration, Total ([5]; Total lipids): 3.0 µg/mL | C20:2n6 concentration, Total ([5]; Total lipids): 9.9 µg/mL | C24:0 concentration, Total ([5]; Total lipids): 1.9 µg/mL
